Assay results: ChEMBL document CHEMBL1156847, “Structure-based design of a thiazolidinedione which targets the mitochondrial protein mitoNEET” (Bioorg Med Chem Lett, 2010)

Key:
[1] = biological target: T1, CDGSH iron-sulfur domain-containing protein 1 (Rattus norvegicus, UniProt B0K020); assay: Displacement of [3H]rosiglitazone from rat liver mitochondrial mitoNEET by scintillation counting
T1 sequence (B0K020 whole entry): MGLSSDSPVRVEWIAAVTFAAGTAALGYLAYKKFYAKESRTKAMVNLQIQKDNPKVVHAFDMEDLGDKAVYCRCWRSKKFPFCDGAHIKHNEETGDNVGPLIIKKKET

[2] = Inhibition of respiration in Sprague-Dawley rat mitochondria assessed as reduction in respiratory control rate; type: functional
Rattus norvegicus = species on record: Rattus norvegicus; assay: Reduction in state 3 respiration in Sprague-Dawley rat mitochondria; type: functional; parameters: scale not given: the % may be the effect or the level left
SH-SY5Y [3] = assay: Neuroprotective activity against rotenone-induced cell death in human SH-SY5Y assessed as reduction in LDH release pretreated 1 hrs before rotenone challenge measured after 24 hrs; type: functional, cell-based
SH-SY5Y [4] = assay: Neuroprotective activity against rotenone-induced cell death in human SH-SY5Y assessed as reduction in LDH release pretreated 1 hrs before rotenone challenge measured after 24 hrs relative to control; type: functional; parameters: scale not given: the % may be the effect or the level left

IC50 [1] [nM] | SMILES | IC50 [2] [nM] | Activity (Rattus norvegicus) [%] | Activity (SH-SY5Y [3]) | Activity (SH-SY5Y [4]) [%]
1100 | CN(CCOc1ccc(CC2SC(=O)NC2=O)cc1)c1ccccn1 (configuration not stated) [ROSIGLITAZONE] | – | – | – | –
1000 | CCc1ccc(CCOc2ccc(CC3SC(=O)NC3=O)cc2)nc1 (configuration not stated) [PIOGLITAZONE] | – | – | – | –

SMILES | IC50 [1] [nM] | IC50 [2] [nM] | Activity (Rattus norvegicus) [%] | Activity (SH-SY5Y [3]) | Activity (SH-SY5Y [4]) [%]
CC(C)(C)c1cc(CC2SC(=O)N=C2O)cc(C(C)(C)C)c1O (configuration not stated) | 900 | 2400 | 45 | Dose-dependent effect | 40
